# Assay results as given in PubChem BioAssay AID1963958 (Molecular Pharmacology Branch, DTP, NCI, 2024).
# System: MDA-MB-231 multicell spheroids, viability
# Test: Anticancer human tumor MDA-MB-231 cell line growth inhibition [PI3K];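 further: spheroids exposed to agents for seven days before reading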;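 on viability, T/C: percent of vehicle control luminescence with DMSO treated spheroids as 100%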
# Conditions: for IC50: curve of first compound; for viability, T/C: stronger effect = lower value
# Description: Combinatorial screen of targeted agents with the PI3K inhibitors inavolisib, alpelisib, duvelisib, and copanlisib in multi-cell type tumor spheroids
# A high-throughput screen of multi-cell type tumor spheroids was designed to identify active combinations of targeted small molecules and PI3K pathway inhibitors. Complex spheroids include a stromal component modeled by human endothelial cells (HUVEC) and fibroblasts modeled by human mesenchymal stem cells (MSCs). The concentration ranges selected for each drug and investigational agent were based upon clinically achievable concentrations if the clinical Cmax of the agent was known.
# Compounds. The drugs and investigational agents: inavolisib (NSC800729), alpelisib (NSC765974), duvelisib (NSC772469), copanlisib (NSC816437), ipatasertib (NSC767898), afuresertib (NSC778305), talazoparib (NSC767125), sapanisertib (NSC764658), selumetinib (NSC741078), tovorafenib (DAY101, NSC766906), vemurafenib (NSC761431), ravoxertinib (NSC781343), sotorasib (NSC818433), MRTX1133 (NSC 836407), abemaciclib (NSC 768073), palbociclib (NSC758247), venetoclax (NSC 766270), SY5609 (NSC837396), enzalutamide (NSC755605), and darolutamide (NSC825331), were obtained from the National Cancer Institute (NCI) Developmental Therapeutics Program Chemical Repository. The FDA-approved anticancer drug set is available from the NCI Developmental Therapeutics Program. […] The stock solutions were prepared in dimethyl sulfoxide (DMSO, Sigma-Aldrich, St. Louis, MO, cat. D2650) at 800-fold the tested concentration and stored at -70 degrees C prior to their use. All drugs and investigational agents were tested over a range starting from a high concentration at or near the clinical Cmax and decreasing in half-log increments. If the clinical Cmax for an agent had not been determined, the highest concentration tested was 10 microM.
# Cell Culture. All cells were maintained in an incubator at 37 degrees C and 5% CO2 with 95% humidity. The PDC lines were cultured according to standard operating procedures established by the NCI PDMR (https://pdmr.cancer.gov/sops/default.htm). All PDCs were thawed and cultured in Matrigel-coated flasks prepared with a working solution of 1X Ham's F-12 nutrient mix, without supplementation (Invitrogen, Waltham, MA, cat. 11765054), 100 U/mL penicillin-streptomycin (Invitrogen, cat. 15140122), and 2.5% Matrigel (Corning Inc., Corning, NY, cat. 354248) for the first three passages. The 354836-022-R-J1-PDC, 475296-252-R-J1-PDC, and 997726-040-R-J2-PDC lines were cultured in 6A media, which includes advanced DMEM/F-12 (Thermo Fisher Scientific, cat. 12634028), 10 mM HEPES (Thermo Fisher Scientific, cat. 15630080), 1X GlutaMAX supplement (Thermo Fisher Scientific, cat. 35050061), 0.1 mg/mL primocin (InvivoGen, San Diego, CA, cat. ant-pm-2), 10% defined fetal bovine serum, heat inactivated (HyClone Laboratories Inc., Logan, UT, cat. SH30070.03HI), 50% L-WRN conditioned media (ATCC, cat. CRL-3276), 1.25 mM N-Acetyl-L-cysteine (Sigma-Aldrich, cat. A9165), 10 mM nicotinamide (Sigma-Aldrich, cat. N0636), 1X B-27 supplement (Thermo Fisher Scientific, cat. 17504044), 1X N-2 supplement (Thermo Fisher Scientific, cat. 17502048), and 10 microM Y-27632 dihydrochloride (Tocris Bioscience, Bristol, United Kingdom, cat. 1254). The 624824-186-R-J2-PDC line was cultured in 6C/Colon 1B media, which includes all 6A media components plus 50 ng/mL human EGF recombinant protein (Thermo Fisher Scientific, cat. PHG0311). […]
# [1] = second compound 0.00316 µM, first compound 0.0316 µM
# [2] = second compound 0.00316 µM, first compound 0.1 µM
# [3] = second compound 0.00316 µM, first compound 0.316 µM
# [4] = second compound 0.00316 µM, first compound 1 µM
# [5] = second compound 0.00316 µM, first compound 3.16 µM
# [6] = second compound 0.00316 µM, first compound 10 µM
# [7] = second compound 0.01 µM, first compound 0.0316 µM
# [8] = second compound 0.01 µM, first compound 0.1 µM
# [9] = second compound 0.01 µM, first compound 0.316 µM
# [10] = second compound 0.01 µM, first compound 1 µM
# [11] = second compound 0.01 µM, first compound 3.16 µM
# [12] = second compound 0.01 µM, first compound 10 µM
# [13] = second compound 0.0316 µM, first compound 0.0316 µM
# [14] = second compound 0.0316 µM, first compound 0.1 µM
# [15] = second compound 0.0316 µM, first compound 0.316 µM
# [16] = second compound 0.0316 µM, first compound 1 µM
# [17] = second compound 0.0316 µM, first compound 3.16 µM
# [18] = second compound 0.0316 µM, first compound 10 µM
# [19] = second compound 0.1 µM, first compound 0.0316 µM
# [20] = second compound 0.1 µM, first compound 0.1 µM
# [21] = second compound 0.1 µM, first compound 0.316 µM
# [22] = second compound 0.1 µM, first compound 1 µM
# [23] = second compound 0.1 µM, first compound 3.16 µM
# [24] = second compound 0.1 µM, first compound 10 µM
# [25] = second compound 0.316 µM, first compound 0.0316 µM
# [26] = second compound 0.316 µM, first compound 0.1 µM
# [27] = second compound 0.316 µM, first compound 0.316 µM
# [28] = second compound 0.316 µM, first compound 1 µM
# [29] = second compound 0.316 µM, first compound 3.16 µM
# [30] = second compound 0.316 µM, first compound 10 µM
# [31] = second compound 1 µM, first compound 0.0316 µM
# [32] = second compound 1 µM, first compound 0.1 µM
# [33] = second compound 1 µM, first compound 0.316 µM
# [34] = second compound 1 µM, first compound 1 µM
# [35] = second compound 1 µM, first compound 3.16 µM
# [36] = second compound 1 µM, first compound 10 µM
structure (smiles),measurement,setting,value
Cn1ncc(Cl)c1-c1cc(C(=O)NC(CN)Cc2cccc(F)c2)sc1Cl (centres undefined) + CC(Nc1ccc2c(c1)OCCn1cc(N3C(=O)OCC3C(F)F)nc1-2)C(N)=O,IC50,second compound 0.00316 µM,2.72 µM
same,IC50,second compound 0.01 µM,2.61 µM
same,IC50,second compound 0.0316 µM,1.54 µM
same,IC50,second compound 0.1 µM,1.26 µM
same,IC50,second compound 0.316 µM,1.18 µM
same,IC50,second compound 1 µM,0.665 µM
same,"viability, T/C",[1],95.7%
same,"viability, T/C",[2],94.2%
same,"viability, T/C",[3],91.2%
same,"viability, T/C",[4],73.4%
same,"viability, T/C",[5],46.9%
same,"viability, T/C",[6],25.3%
same,"viability, T/C",[7],91.5%
same,"viability, T/C",[8],95.2%
same,"viability, T/C",[9],80.7%
same,"viability, T/C",[10],70.5%
same,"viability, T/C",[11],45.9%
same,"viability, T/C",[12],22.8%
same,"viability, T/C",[13],76.4%
same,"viability, T/C",[14],75.2%
same,"viability, T/C",[15],70.1%
same,"viability, T/C",[16],58.3%
same,"viability, T/C",[17],36.6%
same,"viability, T/C",[18],24.1%
same,"viability, T/C",[19],71.4%
same,"viability, T/C",[20],68.8%
same,"viability, T/C",[21],62.9%
same,"viability, T/C",[22],55.6%
same,"viability, T/C",[23],34.5%
same,"viability, T/C",[24],22%
same,"viability, T/C",[25],66.4%
same,"viability, T/C",[26],59.7%
same,"viability, T/C",[27],59.7%
same,"viability, T/C",[28],53.4%
same,"viability, T/C",[29],36.8%
same,"viability, T/C",[30],21%
same,"viability, T/C",[31],58.9%
same,"viability, T/C",[32],56.9%
same,"viability, T/C",[33],55.1%
same,"viability, T/C",[34],46.8%
same,"viability, T/C",[35],36.9%
same,"viability, T/C",[36],18.9%
Cn1nccc1Nc1nccc(-c2ccn(C(CO)c3ccc(Cl)c(F)c3)c(=O)c2)n1 (centres undefined) + CC(Nc1ccc2c(c1)OCCn1cc(N3C(=O)OCC3C(F)F)nc1-2)C(N)=O,IC50,second compound 0.00316 µM,1.08 µM
same,IC50,second compound 0.01 µM,0.618 µM
same,IC50,second compound 0.0316 µM,0.27 µM
same,IC50,second compound 0.1 µM,0.0888 µM
same,IC50,second compound 0.316 µM,0.0669 µM
same,IC50,second compound 1 µM,< 0.0316 µM
same,"viability, T/C",[1],64.6%
same,"viability, T/C",[2],68.1%
same,"viability, T/C",[3],56.8%
same,"viability, T/C",[4],50.9%
same,"viability, T/C",[5],39.6%
same,"viability, T/C",[6],26.9%
same,"viability, T/C",[7],71.6%
same,"viability, T/C",[8],64.4%
same,"viability, T/C",[9],52%
same,"viability, T/C",[10],46.9%
same,"viability, T/C",[11],39.6%
same,"viability, T/C",[12],23%
same,"viability, T/C",[13],69.2%
same,"viability, T/C",[14],56.4%
same,"viability, T/C",[15],47.3%
same,"viability, T/C",[16],42.2%
same,"viability, T/C",[17],29.4%
same,"viability, T/C",[18],20.4%
same,"viability, T/C",[19],56.4%
same,"viability, T/C",[20],46.6%
same,"viability, T/C",[21],43%
same,"viability, T/C",[22],40.2%
same,"viability, T/C",[23],25.5%
same,"viability, T/C",[24],20.8%
same,"viability, T/C",[25],53.4%
same,"viability, T/C",[26],48.5%
same,"viability, T/C",[27],42.1%
same,"viability, T/C",[28],33.4%
same,"viability, T/C",[29],26.3%
same,"viability, T/C",[30],19%
same,"viability, T/C",[31],51.2%
same,"viability, T/C",[32],42.3%
same,"viability, T/C",[33],38.5%
same,"viability, T/C",[34],36.1%
same,"viability, T/C",[35],26.6%
same,"viability, T/C",[36],16.2%
